± gives the expanded uncertainty stated by the source.
What was measured:
[1] = mn = molality of the nth substance listed, in mol/kg; settings: 100 kPa, Liquid, Capillary tube (Ostwald / Ubbelohde) method, m2 = 0
[2] = 101.33 kPa, Liquid; for electrical conductivity: Direct current cell with electrodes; for mass density: Vibrating tube method

O [water] + CCCCn1cc[n+](C)c1.O=C([O-])c1ccccc1O
[1]
Settings	viscosity [mPa·s]
293.15 K	1.003 ± 0.021
298.15 K	0.89 ± 0.019
303.15 K	0.797 ± 0.017
308.15 K	0.719 ± 0.015
313.15 K	0.653 ± 0.014

O [water]
[2], Capillary tube (Ostwald / Ubbelohde) method
Settings	viscosity [mPa·s]
293.15 K	1.003 ± 0.021
298.15 K	0.89 ± 0.019
303.15 K	0.797 ± 0.017
308.15 K	0.719 ± 0.015
313.15 K	0.653 ± 0.014

CCCCn1cc[n+](C)c1.O=C([O-])c1ccccc1O [1-butyl-3-methylimidazolium salicylate]
[2], Cone and plate viscometry
Settings	viscosity [mPa·s]
293.15 K	1194.1 ± 80
298.15 K	777.63 ± 46
303.15 K	501.42 ± 26
308.15 K	338.14 ± 15
313.15 K	240 ± 9.8
318.15 K	167.97 ± 6.1
323.15 K	127.06 ± 4.2

[2]
Settings	electrical conductivity [S/m]	mass density [kg/m3]
293.15 K	0.0182 ± 0.0006	1152.27 ± 4.6
298.15 K	0.0281 ± 0.0008	1149.05 ± 4.5
303.15 K	0.0447 ± 0.0013	1145.65 ± 4.5
308.15 K	0.0692 ± 0.0021	1142.22 ± 4.5
313.15 K	0.0965 ± 0.0029	1138.76 ± 4.5
318.15 K	0.156 ± 0.0047	–
323.15 K	0.22 ± 0.0066	–

— the NIST ThermoML archive (doi:10.1016/j.jct.2015.10.001)
